# Patent US5093371A, “Naphthyl ketone inhibitors of cholesterol esterase and their use as hypolipidemic and hypocaloric agents” (University of Iowa Research Foundation, priority 1990, dated 1992)
# Biological target: Cholesterol esterase (CEase)
# Assay: Inhibition of CEase-catalyzed hydrolysis of p-nitrophenylbutyrate (PNPB)
# Assay type: biochemical
# Details: for Ki: 25.0±0.1 C, pH 7.3, 0.1 M sodium phosphate, 1 mM Triton X100, substrate PNPB, read-out: Ki (inhibition constants for difluoroketone inhibitors of cholesterol esterase)
# Experimental: The CEase-catalyzed hydrolysis of the water-soluble substrate p-nitrophenylbutyrate (PNPB) is a reaction that is routinely used to characterize inhibitors. The reaction is followed at 25.0±0.1.C and pH 7.3 in 0.1 M sodium phosphate buffer that contains 0.1 N NaC1 , 1 mM Triton X100, and the appropriate concentrations of CEase and PNPB. Inhibitor characterization occurs in two stages: (a) the form of the inhibition is determined by fitting substrate timecourse data to the integrated form of the Michaelis-Menten equation by nonlinear-least squares methods: [formula] Reactions are run in the absence and presence of inhibitor. Lineweaver-Burk plots of the data are constructed, as shown in FIG. 1 for inhibition by iododifluoromethyl 2-naphthyl ketone. (b) The dissociation constant of the CEase-inhibitor complex, Ki, is determined by one of two methods. In the first (Method A), […] is calculated from a replot of the apparent Km values (determined by fitting timecourses to equation (1)) versus inhibitor concentration. The replot is described by equation 2: [formula] […] In the second approach (Method B), initial velocity (Vi) versus inhibitor concentration data are fit by nonlinear-least squares to equation 3: [formula] […] The apparent Ki is then used to calculate the actual Ki from equation 4:
# Ki =Ki^app /(1+[S]/Km) (4)
# In equation 4 [S] is the concentration of the substrate PNPB and Km, the Michaelis constant for CEase-catalyzed hydrolysis of PNPB, is 0.09 mM.
Ki [nM],CEase inhibition (in words) (summary of Table I Ki values),Km (Michaelis constant used in equation 4) [µM],SMILES
2000,,,"O=C(c1ccc2ccccc2c1)C(F)(F)Cl [Compound 1, Chlorodifluoromethyl 2-Naphthyl Ketone]"
6000,,,"COc1ccc2cc(C(=O)C(F)(F)Cl)ccc2c1 [Compound 2, Chlorodifluoromethyl 2-(6-Methoxy)naphthyl Ketone]"
800,,,"O=C(c1ccc2ccccc2c1)C(F)(F)I [Compound 3, Iododifluoromethyl 2-Naphthyl Ketone]"
270,,,"CCCCC(F)(F)C(=O)c1ccc2ccccc2c1 [Compound 4, 1,1-Difluoropentyl 2-Naphthyl Ketone]"
380,,,"CCCCC(F)(F)C(=O)c1ccc2cc(OC)ccc2c1 [Compound 5, 1,1-Difluoropentyl 2-(6-Methoxy)naphthyl Ketone]"
80,most potent inhibitor,,"CCCCCC(F)(F)C(=O)c1ccc2ccccc2c1 [Compound 6, 1,1-Difluorohexyl 2-Naphthyl Ketone]"
,,90,"CCCC(=O)Oc1ccc([N+](=O)[O-])cc1 [PNPB, p-nitrophenylbutyrate, reference compound]"
